# Measurements published in EP4763839A1 (Pamplona Therapeutics (Shenzhen) Co., Ltd., priority 2023, dated 2025).
# pIC50: −log10 of the molar value. Structures can show the parent of a compound that is named as a salt.
# Columns and labels:
# [1] = molecular target: T1, IRAK4 (Homo sapiens, UniProt Q9NWZ3); test: Assay for inhibitory effect of compound on IRAK4 kinase activity (KinEASE-STK S1 HTRF kit); type: biochemical; conditions: kinase 8 nM, ATP 80 µM, 37°C 90 minutes; read-out: IRAK4 HTRF IC50
# T1 sequence (Q9NWZ3 1-460): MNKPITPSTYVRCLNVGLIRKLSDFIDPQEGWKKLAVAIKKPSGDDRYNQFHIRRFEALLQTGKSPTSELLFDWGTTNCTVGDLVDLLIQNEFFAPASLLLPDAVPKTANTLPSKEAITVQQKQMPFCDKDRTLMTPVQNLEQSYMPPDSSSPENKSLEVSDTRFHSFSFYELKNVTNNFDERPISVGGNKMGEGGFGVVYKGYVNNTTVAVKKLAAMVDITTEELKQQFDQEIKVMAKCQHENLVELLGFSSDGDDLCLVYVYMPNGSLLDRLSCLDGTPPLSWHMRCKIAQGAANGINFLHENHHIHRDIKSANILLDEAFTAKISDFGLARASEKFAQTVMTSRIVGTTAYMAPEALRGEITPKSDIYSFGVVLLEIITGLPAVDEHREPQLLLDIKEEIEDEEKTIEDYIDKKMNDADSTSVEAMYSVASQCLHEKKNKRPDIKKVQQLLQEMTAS
# Protocol: Example 1: Kinase activity assay
# Assay for inhibitory effect of compound on IRAK4 kinase activity
# The inhibitory effect of the compound on IRAK4 kinase activity was measured using the KinEASE-STK S1 serine/threonine kinase kit (Cisbio). The specific method was as follows: the compound was dissolved in dimethyl sulfoxide and then subjected to 3-fold serial dilution in dimethyl sulfoxide, yielding final test compound concentrations in the reaction system ranging from 5,000 nM to 0.0254 nM. The kinase at a final concentration of 8 nM was added, followed by incubation at rt for 15 minutes. Subsequently, biotinylated STK1 substrate at a final concentration of 400 nM and adenosine triphosphate (ATP) at a final concentration of 80 µM were sequentially added, and the mixture was incubated at 37°C for 90 minutes. Then, the reaction was terminated by adding an anti-phosphoserine/threonine antibody conjugated with a europium cryptate and streptavidin-conjugated XL665 to the reaction system. After incubation at rt for 1 hour, the fluorescence intensity at emission wavelengths of 620 nm and 665 nm for each well was measured using an EnVision microplate reader (PerkinElmer) in HTRF mode. The ratio value was calculated using the formula: Ratio = (665 nm/620 nm)×10^4 The inhibition rate of the compound at each concentration was calculated using the formula: Inhibition% = [1-(Signal sample-Signal min)/(Signal max-Signal min)]×100. Subsequently, the dose-response curve was fitted by nonlinear curve fitting of log concentration versus inhibition rate using Fit Modela (205) in XLfit to give the IC50 value of the compound for inhibition of protein activity.
# [2] = molecular target: T1, IRAK4; test: Degradation of IRAK4 in THP1 cells, Western blot; type: cell-based; set-up: Degradation of IRAK4 in THP1 by compound; host or cells: THP-1; conditions: THP-1 cells, 24 hours of incubation; for DC50: IRAK4 protein by Western blot, read-out: DC50; for Dmax: maximum degradation rate, read-out: Dmax
# How it was run: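 THP1 cells treated 24 h, lysed; lysates normalised by BCA, 40 μg protein per lane on 10% SDS-PAGE, anti-IRAK4 Western blot with chemiluminescence detection.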
SMILES,pIC50 [1],DC50 [2],Dmax [2]
CC(C)(C)OC(=O)N1CCC(n2cc(NC(=O)c3cccc(C(F)(F)F)n3)c(C(N)=O)n2)CC1 [Compound A1],6.00 to 7.00,,
NC(=O)c1nn(-c2cnc(Br)cn2)cc1NC(=O)c1cccc(C(F)(F)F)n1 [Compound A2],< 6.00,,
NC(=O)c1nn(C2CCNCC2)cc1NC(=O)c1cccc(C(F)(F)F)n1 [Compound A3],6.00 to 7.00,,
NC(=O)c1cn(-c2ccccc2)nc1NC(=O)c1cccc(C(F)(F)F)n1 [Compound A4],< 6.00,,
NC(=O)c1nn(-c2ccccc2)cc1NC(=O)c1cccc(C(F)(F)F)n1 [Compound A5],> 7.00,,
NC(=O)c1nn(-c2ccc(O)cc2)cc1NC(=O)c1cccc(C(F)(F)F)n1 [Compound A6],> 7.00,,
COc1ccc(-n2cc(NC(=O)c3cccc(C(F)(F)F)n3)c(C(N)=O)n2)cc1 [Compound A7],6.00 to 7.00,,
NC(=O)c1nn(-c2ccc(N)cc2)cc1NC(=O)c1cccc(C(F)(F)F)n1 [Compound A9],6.00 to 7.00,,
CNc1ccc(-n2cc(NC(=O)c3cccc(C(F)(F)F)n3)c(C(N)=O)n2)cc1 [Compound A10],6.00 to 7.00,,
CC(=O)Nc1ccc(-n2cc(NC(=O)c3cccc(C(F)(F)F)n3)c(C(N)=O)n2)cc1 [Compound A12],> 7.00,,
CNC(=O)c1ccc(-n2cc(NC(=O)c3cccc(C(F)(F)F)n3)c(C(N)=O)n2)cc1 [Compound A14],> 7.00,,
CN(C)C(=O)c1ccc(-n2cc(NC(=O)c3cccc(C(F)(F)F)n3)c(C(N)=O)n2)cc1 [Compound A15],> 7.00,,
NC(=O)c1nn(-c2ccc(C(=O)N3CCNCC3)cc2)cc1NC(=O)c1cccc(C(F)(F)F)n1 [Compound A16],> 7.00,,
NC(=O)c1nn(-c2ccc(C(=O)O)c(F)c2)cc1NC(=O)c1cccc(C(F)(F)F)n1 [Compound A17],6.00 to 7.00,,
NC(=O)c1nn(-c2ccc(CO)cc2)cc1NC(=O)c1cccc(C(F)(F)F)n1 [Compound A18],6.00 to 7.00,,
COCc1ccc(-n2cc(NC(=O)c3cccc(C(F)(F)F)n3)c(C(N)=O)n2)cc1 [Compound A19],> 7.00,,
"CC(C)(O)c1nn(-c2ccc(N3CCN(CC4CCN(c5ccc(NC6CCC(=O)NC6=O)cc5F)CC4)CC3)cc2)cc1NC(=O)c1cccc(C(F)(F)F)n1 (stereo not drawn) [Compound A434, N-(1-(4-(4-((1-(4-((2,6-Dioxopiperidin-3-yl)amino)-2-fluorophenyl)piperidin-4-yl)methyl)piperazin-1-yl)phenyl)-3-(2-hydroxypropan-2-yl)-1H-pyrazol-4-yl)-6-(trifluoromethyl)picolinamide]",,< 100 nM,> 60%
CC(C)(O)c1nn(-c2ccc(N3CCN(CC4CCN(c5ccc(OC6CCC(=O)NC6=O)cn5)CC4)CC3)cc2)cc1NC(=O)c1cccc(C(F)(F)F)n1 (stereo not drawn) [Compound A437],,< 100 nM,> 60%
"CC(C)(O)c1nn(-c2ccc(N3CCN(CC4CCN(c5ccc(NC6CCC(=O)NC6=O)cn5)CC4)CC3)cc2)cc1NC(=O)c1cccc(C(F)(F)F)n1 (stereo not drawn) [Compound A438, N-(1-(4-(4-((1-(5-((2,6-Dioxopiperidin-3-yl)amino)pyridin-2-yl)piperidin-4-yl)methyl)piperazin-1-yl)phenyl)-3-(2-hydroxypropan-2-yl)-1H-pyrazol-4-yl)-6-(trifluoromethyl)picolinamide formate]",,< 100 nM,> 60%
"CC(C)(O)c1nn(-c2ccc(N3CCN(C4CCN(c5ccc(NC6CCC(=O)NC6=O)cc5F)CC4)CC3)cc2)cc1NC(=O)c1cccc(C(F)(F)F)n1 (stereo not drawn) [Compound A439, N-(1-(4-(4-(1-(-4-((2,6-Dioxopiperidin-3-yl)amino)-2-fluorophenyl)piperidin-4-yl)piperazin-1-yl)phenyl)-3-(2-hydroxypropan-2-yl)-1H-pyrazol-4-yl)-6-(trifluoromethyl)picolinamide]",,< 100 nM,> 60%
"CC(C)(O)c1nn(-c2ccc(N3CCN(C4CCN(c5ccc(OC6CCC(=O)NC6=O)cn5)CC4)CC3)cc2)cc1NC(=O)c1cccc(C(F)(F)F)n1 (stereo not drawn) [Compound A440, N-(1-(4-(4-(1-(5-((2,6-Dioxopiperidin-3-yl)oxy)pyridin-2-yl)piperidin-4-yl)piperazin-1-yl)phenyl)-3-(2-hydroxypropan-2-yl)-1H-pyrazol-4-yl)-6-(trifluoromethyl)picolinamide]",,< 100 nM,> 60%
"CC(C)(O)c1nn(-c2ccc(N3CCN(C4CCN(c5ccc(C(=O)NC6CCC(=O)NC6=O)c(F)c5)CC4)CC3)cc2)cc1NC(=O)c1cccc(C(F)(F)F)n1 (stereo not drawn) [Compound A442, N-(1-(4-(4-(1-(4-((2,6-dioxopiperidin-3-yl)carbamoyl)-3-fluorophenyl)piperidin-4-yl)piperazin-1-yl)phenyl)-3-(2-hydroxypropan-2-yl)-1H-pyrazol-4-yl)-6-(trifluoromethyl)picolinamide]",,< 100 nM,> 60%
"CC(C)(O)c1nn(-c2ccc(N3CCN(C4CCN(c5ccc(C(=O)NC6CCC(=O)NC6=O)cc5F)CC4)CC3)cc2)cc1NC(=O)c1cccc(C(F)(F)F)n1 (stereo not drawn) [Compound A443, N-(1-(4-(4-(1-(4-((2,6-dioxopiperidin-3-yl)carbamoyl)-2-fluorophenyl)piperidin-4-yl)piperazin-1-yl)phenyl)-3-(2-hydroxypropan-2-yl)-1H-pyrazol-4-yl)-6-(trifluoromethyl)picolinamide]",,< 100 nM,> 60%
"CN(c1ccc(N2CCC(CN3CCN(c4ccc(-n5cc(NC(=O)c6cccc(C(F)(F)F)n6)c(C(N)=O)n5)cc4)CC3)CC2)c(F)c1)C1CCC(=O)NC1=O (stereo not drawn) [Compound A447, N-(3-Carbamoyl-1-(4-(4-((1-(4-((2,6-Dioxopiperidin-3-yl)(methyl)amino)-2-fluorophenyl)piperidin-4-yl)methyl)piperazin-1-yl)phenyl)-1H-pyrazol-4-yl)-6-(trifluoromethyl)picolinamide formate]",,< 100 nM,> 60%
NC(=O)c1nn(-c2ccc(N3CCN(C(=O)N4CCC(Cc5ccc(N6CCC(=O)NC6=O)cc5)CC4)CC3)cc2)cc1NC(=O)c1cccc(C(F)(F)F)n1 [Compound A448],,100 to 1000 nM,40 to 60%
"NC(=O)c1nn(C23CC(N4CCN(C5CCN(c6ccc(NC7CCC(=O)NC7=O)cc6F)CC5)CC4)(C2)C3)cc1NC(=O)c1cccc(C(F)(F)F)n1 (stereo not drawn) [Compound A451, N-(3-Carbamoyl-1-(3-(4-(1-(4-((2,6-Dioxopiperidin-3-yl)amino)-2-fluorophenyl)piperidin-4-yl)piperazin-1-yl)bicyclo[1.1.1]pentan-1-yl)-1H-pyrazol-4-yl)-6-(trifluoromethyl)picolinamide]",,< 100 nM,> 60%
"NC(=O)c1cn(-c2ccc(N3CCN(C4CCN(c5ccc(C(=O)NC6CCC(=O)NC6=O)nc5)CC4)CC3)cc2)cc1NC(=O)c1cccc(C(F)(F)F)n1 (stereo not drawn) [Compound A452, N-(4-Carbamoyl-1-(4-(4-(1-(6-((2,6-dioxopiperidin-3-yl)carbamoyl)pyridin-3-yl)piperidin-4-yl)piperazin-1-yl)phenyl)-1H-pyrrol-3-yl)-6-(trifluoromethyl)picolinamide]",,< 100 nM,> 60%
"CC(C)(O)c1nn(-c2ccc(N3CCN(CCC4CCN(C(=O)c5ccc(F)c(N6CCC(=O)NC6=O)c5)CC4)CC3)cc2)cc1NC(=O)c1cccc(C(F)(F)F)n1 [Compound A453, N-(1-(4-(4-(2-(1-(3-(2,4-Dioxotetrahydropyrimidin-1(2H)-yl)-4-fluorobenzoyl)piperidin-4-yl)ethyl)piperazin-1-yl)phenyl)-3-(2-hydroxypropan-2-yl)-1H-pyrazol-4-yl)-6-(trifluoromethyl)picolinamide]",,< 100 nM,> 60%
"COc1ccc(C(=O)N2CCC(CCN3CCN(c4ccc(-n5cc(NC(=O)c6cccc(C(F)(F)F)n6)c(C(C)(C)O)n5)cc4)CC3)CC2)cc1N1CCC(=O)NC1=O [Compound A454, N-(1-(4-(4-(2-(1-(3-(2,4-Dioxotetrahydropyrimidin-1(2H)-yl)-4-methoxybenzoyl)piperidin-4-yl)ethyl)piperazin-1-yl)phenyl)-3-(2-hydroxypropan-2-yl)-1H-pyrazol-4-yl)-6-(trifluoromethyl)picolinamide]",,< 100 nM,> 60%
